Experimental data as given in PubChem BioAssay (NCI).
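96-well plates; 48 h exposure; 5 concentrations. Endpoints by linear interpolation between flanking doses. Not reached: highest tested concentration assigned. TGI: concentration producing complete growth inhibition.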

Legend:
Experiment in all cases: DTP human tumour cell line panel, 48 h
COLO 205 colon = tested on: COLO 205 colon
SK-OV-3 ovarian = tested on: SK-OV-3 ovarian
PC-3 prostate = tested on: PC-3 prostate
TK-10 renal = tested on: TK-10 renal
OVCAR-8 ovarian = tested on: OVCAR-8 ovarian
NCI-H226 lung = tested on: NCI-H226 lung
BT-549 breast = tested on: BT-549 breast
SK-MEL-28 melanoma = tested on: SK-MEL-28 melanoma
HOP-92 NSCLC = tested on: HOP-92 NSCLC
SN12C renal = tested on: SN12C renal
SNB-19 CNS = tested on: SNB-19 CNS
A549 NSCLC = tested on: A549 NSCLC
UO-31 renal = tested on: UO-31 renal
MALME-3M melanoma = tested on: MALME-3M melanoma
HCT-15 colon = tested on: HCT-15 colon
CCRF-CEM leukemia = tested on: CCRF-CEM leukemia
RXF 393 renal = tested on: RXF 393 renal
NCI-H522 lung = tested on: NCI-H522 lung
K-562 leukemia = tested on: K-562 leukemia
OVCAR-5 ovarian = tested on: OVCAR-5 ovarian
KM12 colon = tested on: KM12 colon
MDA-MB-231 breast = tested on: MDA-MB-231 breast
RPMI-8226 leukemia = tested on: RPMI-8226 leukemia
OVCAR-4 ovarian = tested on: OVCAR-4 ovarian
MOLT-4 leukemia = tested on: MOLT-4 leukemia
SF-268 CNS = tested on: SF-268 CNS
SR leukemia = tested on: SR leukemia
OVCAR-3 ovarian = tested on: OVCAR-3 ovarian
NCI-H460 lung = tested on: NCI-H460 lung
786-0 renal = tested on: 786-0 renal
MDA-N = tested on: MDA-N
NCI/ADR-RES ovarian = tested on: NCI/ADR-RES ovarian
A498 renal = tested on: A498 renal
SK-MEL-5 melanoma = tested on: SK-MEL-5 melanoma
HCC-2998 colon = tested on: HCC-2998 colon
MDA-MB-435 = tested on: MDA-MB-435
DU-145 prostate = tested on: DU-145 prostate
CAKI-1 renal = tested on: CAKI-1 renal
T-47D breast = tested on: T-47D breast
SW-620 colon = tested on: SW-620 colon
U251 CNS = tested on: U251 CNS
IGROV1 ovarian = tested on: IGROV1 ovarian
ACHN renal = tested on: ACHN renal
UACC-257 melanoma = tested on: UACC-257 melanoma
NCI-H23 lung = tested on: NCI-H23 lung
HS 578T breast = tested on: HS 578T breast
HCT-116 colon = tested on: HCT-116 colon
MCF7 breast = tested on: MCF7 breast
HT29 colon = tested on: HT29 colon
M14 melanoma = tested on: M14 melanoma
SNB-75 CNS = tested on: SNB-75 CNS
SK-MEL-2 melanoma = tested on: SK-MEL-2 melanoma
HL-60(TB) leukemia = tested on: HL-60(TB) leukemia
UACC-62 melanoma = tested on: UACC-62 melanoma
SF-539 CNS = tested on: SF-539 CNS
HOP-62 NSCLC = tested on: HOP-62 NSCLC
LOX IMVI melanoma = tested on: LOX IMVI melanoma
EKVX NSCLC = tested on: EKVX NSCLC
SF-295 CNS = tested on: SF-295 CNS
DMS 114 small cell lung = tested on: DMS 114 small cell lung
SNB-78 CNS = tested on: SNB-78 CNS
M19-MEL melanoma = tested on: M19-MEL melanoma
HOP-18 NSCLC = tested on: HOP-18 NSCLC
XF 498 CNS = tested on: XF 498 CNS
KM20L2 colon = tested on: KM20L2 colon
LXFL 529 NSCLC = tested on: LXFL 529 NSCLC
DLD-1 colon = tested on: DLD-1 colon

Measured: TGI

COc1ccc(/C=C2\N=C(c3ccccc3)N(N=C3NC(=O)CC(=O)N3)C2=O)cc1
not listed: LOX IMVI melanoma | EKVX NSCLC | SF-295 CNS | DMS 114 small cell lung | SNB-78 CNS | M19-MEL melanoma | HOP-18 NSCLC | XF 498 CNS | KM20L2 colon | LXFL 529 NSCLC | DLD-1 colon
> 100 µM: all other assays above

CC(=O)N(O)[C@@H]1CC[C@H](n2cnc3c(N)ncnc32)C1
not listed: HT29 colon | HL-60(TB) leukemia | DMS 114 small cell lung | SNB-78 CNS | M19-MEL melanoma | HOP-18 NSCLC | XF 498 CNS | KM20L2 colon | LXFL 529 NSCLC | DLD-1 colon
> 100 µM: all other assays above

CCOC(=O)C(Cl)(NC(=O)c1c(F)c(F)c(F)c(F)c1F)C(F)(F)F (centres undefined)
75.3 µM: HOP-92 NSCLC
36.4 µM: CAKI-1 renal
54.7 µM: NCI-H522 lung
not listed: NCI-H460 lung | A498 renal | DMS 114 small cell lung | SNB-78 CNS | M19-MEL melanoma | HOP-18 NSCLC | XF 498 CNS | KM20L2 colon | LXFL 529 NSCLC | DLD-1 colon
> 100 µM: all other assays above

CC1(Cl)CCC2(CC(Br)=CC3OC32C)CC1Br (centres undefined)
47.3 µM: NCI-H226 lung
81.2 µM: M19-MEL melanoma
57 µM: HT29 colon
71.1 µM: NCI-H460 lung
53.5 µM: CCRF-CEM leukemia
> 100 µM: SK-OV-3 ovarian | TK-10 renal | SNB-19 CNS | A549 NSCLC | OVCAR-5 ovarian | KM12 colon | EKVX NSCLC | IGROV1 ovarian | M14 melanoma
38.7 µM: HL-60(TB) leukemia
78.8 µM: HOP-92 NSCLC
40.8 µM: RXF 393 renal
91.7 µM: OVCAR-8 ovarian
49.9 µM: NCI-H23 lung
55.8 µM: SR leukemia
52.4 µM: MOLT-4 leukemia
40.2 µM: HCT-116 colon
86.6 µM: SNB-78 CNS
50.1 µM: SF-268 CNS
87.4 µM: HOP-62 NSCLC
42.4 µM: UACC-257 melanoma
66.6 µM: UO-31 renal
57.6 µM: SF-295 CNS
55.5 µM: NCI-H522 lung
42.7 µM: UACC-62 melanoma
69.9 µM: SK-MEL-28 melanoma
83.2 µM: DMS 114 small cell lung
68.8 µM: A498 renal
41.8 µM: U251 CNS

COC1OC(COCc2ccc(Cl)cc2)C(OCc2ccc(Cl)cc2)C1N=[N+]=[N-] (centres undefined)
75.7 µM: UACC-62 melanoma
16 µM: A549 NSCLC
16.8 µM: 786-0 renal
not listed: PC-3 prostate | BT-549 breast | CCRF-CEM leukemia | MDA-MB-231 breast | SF-268 CNS | MDA-N | NCI/ADR-RES ovarian | A498 renal | MDA-MB-435 | DU-145 prostate | T-47D breast | HS 578T breast | MCF7 breast | HL-60(TB) leukemia | SF-539 CNS | HOP-62 NSCLC | LOX IMVI melanoma | M19-MEL melanoma | DLD-1 colon
> 100 µM: all other assays above

CC(C)C(C)C(C)(C)P(C)(C)=O (centres undefined)
not listed: COLO 205 colon | PC-3 prostate | OVCAR-8 ovarian | BT-549 breast | HOP-92 NSCLC | A549 NSCLC | CCRF-CEM leukemia | NCI-H522 lung | K-562 leukemia | MDA-MB-231 breast | RPMI-8226 leukemia | MOLT-4 leukemia | SR leukemia | 786-0 renal | MDA-N | NCI/ADR-RES ovarian | A498 renal | SK-MEL-5 melanoma | MDA-MB-435 | DU-145 prostate | CAKI-1 renal | T-47D breast | SW-620 colon | IGROV1 ovarian | HS 578T breast | MCF7 breast | HL-60(TB) leukemia | SF-295 CNS | HOP-18 NSCLC
> 100 µM: all other assays above

C#CC1(O)C(COP(=O)(O)OCC2OC(n3ccc(NCCCCCCCCCCCCCCCCCC)nc3=O)C(O)C2O)OC(n2ccc(N)nc2=O)C1O (centres undefined)
> 32.9 µM: COLO 205 colon
70.6 µM: MDA-N
54.1 µM: EKVX NSCLC
34.4 µM: MDA-MB-231 breast | NCI-H460 lung
26 µM: SK-MEL-5 melanoma
40 µM: MOLT-4 leukemia
34.5 µM: SF-539 CNS
> 59.7 µM: MCF7 breast
> 50 µM: SW-620 colon
> 55.9 µM: A549 NSCLC
5.3 µM: SK-MEL-2 melanoma
6.02 µM: IGROV1 ovarian
35.3 µM: OVCAR-8 ovarian
11 µM: MALME-3M melanoma
15.2 µM: M14 melanoma
39.9 µM: SN12C renal
31.7 µM: PC-3 prostate
18.6 µM: SF-295 CNS
60.2 µM: UACC-257 melanoma
10.3 µM: UACC-62 melanoma
7.57 µM: MDA-MB-435
34.8 µM: OVCAR-4 ovarian
38.1 µM: SF-268 CNS
6.77 µM: CAKI-1 renal
55.8 µM: NCI-H23 lung
> 100 µM: CCRF-CEM leukemia | 786-0 renal | DU-145 prostate
11.1 µM: LOX IMVI melanoma
> 34.5 µM: HCC-2998 colon
> 46.4 µM: NCI-H226 lung
26.6 µM: KM12 colon
31.6 µM: SK-MEL-28 melanoma
46.7 µM: HOP-62 NSCLC
> 38.4 µM: T-47D breast
2.53 µM: UO-31 renal
> 95 µM: HT29 colon
> 53.3 µM: ACHN renal
29.8 µM: BT-549 breast
45.9 µM: SNB-75 CNS
0.773 µM: NCI-H522 lung
11.7 µM: SR leukemia
45.2 µM: HS 578T breast
37.3 µM: NCI/ADR-RES ovarian
40.6 µM: SNB-19 CNS
53.5 µM: U251 CNS
> 36 µM: HCT-116 colon
> 59.4 µM: SK-OV-3 ovarian
62.1 µM: OVCAR-3 ovarian
59.8 µM: HOP-92 NSCLC
19.1 µM: TK-10 renal
> 73.8 µM: RPMI-8226 leukemia
36.6 µM: HCT-15 colon
19.9 µM: K-562 leukemia
19.5 µM: HL-60(TB) leukemia
60.5 µM: OVCAR-5 ovarian
59.2 µM: A498 renal
61.9 µM: RXF 393 renal
